From patent US10723741B1, “DNA polymerase IIIC inhibitors and use thereof” (Acurx Pharmaceuticals, LLC, priority 2018, dated 2020)
In brackets after ≈: the same amount, converted by molar mass.

What was measured:
Assay type in all cases: cell-based
[1] = tested on: Staphylococcus aureus NRS384 (MRSA); experiment: Broth microdilution MIC, S. aureus NRS384 (MRSA); conditions: Staphylococcus aureus; broth microdilution, 37° C., 20 hours; read-out: MIC NRS 384 (MRSA)
In short: (§1)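 Two-fold dilutions from 64 to 0.0625 μg/ml final, 1% DMSO, were inoculated at ~5.0×10^5 cfu/ml in the strain's test medium and kept 20 h at 37 °C in ambient atmosphere. Colonies were grown on MHA, with S. pneumoniae on blood agar under 5% CO2.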

[2] = tested on: Staphylococcus aureus ATCC 29213 (MSSA); experiment: Broth microdilution MIC, S. aureus ATCC 29213 (MSSA); conditions: broth microdilution, 37° C., 20 hours, read-out: MIC S. aureus ATCC 29213 (MSSA)
In short: as §1

[3] = tested on: Enterococcus faecalis ATCC 29212; experiment: Broth microdilution MIC, E. faecalis ATCC 29212; conditions: ATCC29212, broth microdilution, 37° C., 20 hours, read-out: MIC E. faecalis ATCC 29212
In short: as §1

[4] = tested on: Enterococcus faecium ATCC 700221 (VRE); experiment: Broth microdilution MIC, E. faecium ATCC 700221 (VRE); conditions: Enterococcus faecium; broth microdilution, 37° C., 20 hours; read-out: MIC E. faecium ATCC 700221 (VRE)
In short: as §1

[5] = tested on: Streptococcus pneumoniae ATCC 49619; experiment: Broth microdilution MIC, S. pneumoniae ATCC 49619; conditions: ATCC49619, broth microdilution, 37° C., 20 hours, read-out: MIC S. pneumoniae ATCC 49619
In short: as §1

[6] = tested on: Bacillus subtilis ATCC 6633; experiment: Broth microdilution MIC, B. subtilis ATCC 6633; conditions: ATCC6633, broth microdilution, 37° C., 20 hours, read-out: MIC B. subtilis ATCC 6633
In short: as §1

[7] = tested on: Escherichia coli ATCC 25922; experiment: Broth microdilution MIC, E. coli ATCC 25922 (MHIIB w & w/o 4 mM EDTA); conditions: broth microdilution, 37° C., 20 hours; for MIC: Escherichia coli, ATCC25922, without EDTA, read-out: MIC E. coli ATCC 25922; for MIC E. coli ATCC 25922 + 4 mM EDTA: with 4 mM EDTA
In short: as §1

Row | SMILES | MIC [1] [µg/mL] | MIC [2] [µg/mL] | MIC [3] [µg/mL] | MIC [4] [µg/mL] | MIC [5] [µg/mL] | MIC [6] [µg/mL] | MIC [7] [µg/mL] | MIC E. coli ATCC 25922 + 4 mM EDTA [7]
1 | O=c1[nH]c(NCc2ccc(Cl)c(Cl)c2)nc2cnn(Cc3ccccc3)c12 [Compound 127, 1-Benzyl-5-((3,4-dichlorobenzyl)amino)-1H-pyrazolo[4,3-d]pyrimidin-7(6H)-one] | > 64 | > 64 | > 64 | 32 (≈ 79.9 µM) | > 64 | 1 (≈ 2.5 µM) | > 64 | >64 µg/mL
2 | Cn1ncc2nc(NCc3cnco3)[nH]c(=O)c21 [Compound 21, 1-Methyl-5-((oxazol-5-ylmethyl)amino)-1H-pyrazolo[4,3-d]pyrimidin-7(6H)-one] | > 64 | > 64 | > 64 | > 64 | > 64 | > 64 | > 64 | >64 µg/mL
3 | Cn1nc(C(=O)O)c2nc(NCc3ccc(Cl)c(Cl)c3)[nH]c(=O)c21 [Compound 41, 5-((3,4-dichlorobenzyl)amino)-1-methyl-7-oxo-6,7-dihydro-1H-pyrazolo[4,3-d]pyrimidine-3-carboxylic acid] | > 64 | > 64 | > 64 | > 64 | > 64 | > 64 | > 64 | >64. ug/ml
4 | Cn1ncc2nc(NCc3ccncc3)[nH]c(=O)c21 [Compound 6, 1-Methyl-5-((pyridin-4-ylmethyl)amino)-1H-pyrazolo[4,3-d]pyrimidin-7(6H)-one] | > 64 | > 64 | > 64 | > 64 | > 64 | > 64 | > 64 | >64 µg/mL
5 | O=c1[nH]c(NCc2ccc(Cl)c(Cl)c2)nc2c(-c3ncco3)nn(CCOCCO)c12 [Compound 50, 5-((3,4-dichlorobenzyl)amino)-1-(2-(2-hydroxyethoxy)ethyl)-3-(oxazol-2-yl)-1H-pyrazolo[4,3-d]pyrimidin-7(6H)-one] | > 64 | > 64 | > 64 | > 64 | > 64 | > 64 | > 64 | >64 µg/mL
6 | COc1cc(CNc2nc3cnn(C)c3c(=O)[nH]2)ccc1Cl [Compound 34, 5-((4-Chloro-3-methoxybenzyl)amino)-1-methyl-1H-pyrazolo[4,3-d]pyrimidin-7(6H)-one] | > 64 | > 64 | > 64 | > 64 | 64 (≈ 200 µM) | > 64 | > 64 | >64 µg/mL
7 | Cl.O=c1[nH]c(NCc2ccc(Cl)c(Cl)c2)nc2cnn(CC3C(O)C4CCN3CC4)c12 (centres unmarked) [Compound 236, 5-((3,4-Dichlorobenzyl)amino)-1-((3-hydroxyquinuclidin-2-yl)methyl)-1H-pyrazolo[4,3-d]pyrimidin-7(6H)-one] | > 64 | > 64 | 64 | 64 | 8 | 32 | > 64 | 64 µg/mL
8 | Cn1ncc2nc(NCc3ccccc3)[nH]c(=O)c21 [Compound 3, 5-(Benzylamino)-1-methyl-1H-pyrazolo[4,3-d]pyrimidin-7(6H)-one] | 64 (≈ 251 µM) | 32 (≈ 125 µM) | 64 (≈ 251 µM) | 32 (≈ 125 µM) | 32 (≈ 125 µM) | 32 (≈ 125 µM) | > 64 | >64 µg/mL

Next, values leading:

Row | MIC [1] [µg/mL] | MIC [2] [µg/mL] | MIC [3] [µg/mL] | MIC [4] [µg/mL] | MIC [5] [µg/mL] | MIC [6] [µg/mL] | MIC [7] [µg/mL] | MIC E. coli ATCC 25922 + 4 mM EDTA [7] | SMILES
9 | 16 (≈ 41.6 µM) | 16 (≈ 41.6 µM) | 16 (≈ 41.6 µM) | 8 (≈ 20.8 µM) | 4 (≈ 10.4 µM) | 8 (≈ 20.8 µM) | > 64 | >64 µg/mL | O=c1[nH]c(NCc2ccc(Cl)c(Cl)c2)nc2cnn(CC(O)CO)c12 (centres unmarked) [Compound 75, 5-((3,4-dichlorobenzyl)amino)-1-(2,3-dihydroxypropyl)-1H-pyrazolo[4,3-d]pyrimidin-7(6H)-one]
10 | 16 (≈ 38 µM) | 16 (≈ 38 µM) | 16 (≈ 38 µM) | 4 (≈ 9.49 µM) | 4 (≈ 9.49 µM) | 8 (≈ 19 µM) | > 64 | >64 µg/mL | O=C1CCCN1CCn1ncc2nc(NCc3ccc(Cl)c(Cl)c3)[nH]c(=O)c21 [Compound 94, 5-((3,4-Dichlorobenzyl)amino)-1-(2-(2-oxopyrrolidin-1-yl)ethyl)-1H-pyrazolo[4,3-d]pyrimidin-7(6H)-one]
11 | 8 (≈ 27.6 µM) | 8 (≈ 27.6 µM) | 16 (≈ 55.2 µM) | 16 (≈ 55.2 µM) | 4 (≈ 13.8 µM) | 8 (≈ 27.6 µM) | > 64 | 64 µg/mL | Cn1ncc2nc(NCc3ccc(Cl)cc3)[nH]c(=O)c21 [Compound 25, 5-((4-chlorobenzyl)amino)-1-methyl-1H-pyrazolo[4,3-d]pyrimidin-7(6H)-one]
12 | 64 (≈ 167 µM) | > 64 | > 64 | 64 (≈ 167 µM) | > 64 | 64 (≈ 167 µM) | > 64 | >64 µg/mL | CC(C(=O)O)n1ncc2nc(NCc3ccc(Cl)c(Cl)c3)[nH]c(=O)c21 (centres unmarked) [Compound 226, 2-(5-((3,4-dichlorobenzyl)amino)-7-oxo-6,7-dihydro-1H-pyrazolo[4,3-d]pyrimidin-1-yl)propanoic acid]
13 | 64 | 64 | 32 | 32 | 8 | 8 | > 64 | >64 µg/mL | COCC(CN(C)C)OCCn1ncc2nc(NCc3ccc(Cl)c(Cl)c3)[nH]c(=O)c21.Cl (centres unmarked) [Compound 183, 5-((3,4-dichlorobenzyl)amino)-1-(2-((1-(dimethylamino)-3-methoxypropan-2-yl)oxy)ethyl)-1H-pyrazolo[4,3-d]pyrimidin-7(6H)-one hydrochloride]
14 | 64 | 32 | 32 | 16 | 4 | 4 | > 64 | >64 µg/mL | Cl.Cl.O=c1[nH]c(NCc2ccc(Cl)c(Cl)c2)nc2cnn(CCN3CCN(CCO)CC3)c12 [Compound 71, 5-((3,4-Dichlorobenzyl)amino)-1-(2-(4-(2-hydroxyethyl)piperazin-1-yl)ethyl)-1H-pyrazolo[4,3-d]pyrimidin-7(6H)-one dihydrochloride]
15 | 16 | 16 | 64 | 64 | 64 | 16 | > 64 | >64 µg/mL | Cl.N=C(N)NCCn1ncc2nc(NCc3ccc(Cl)c(Cl)c3)[nH]c(=O)c21 [Compound 292, 1-(2-(5-((3,4-dichlorobenzyl)amino)-7-oxo-6,7-dihydro-1H-pyrazolo[4,3-d]pyrimidin-1-yl)ethyl)guanidine hydrochloride]
16 | 64 | > 64 | 64 | 32 | 16 | 16 | > 64 | >64 µg/mL | CN(C)CC(O)C(O)C(=O)N1CCC(n2ncc3nc(NCc4ccc(Cl)c(Cl)c4)[nH]c(=O)c32)CC1.Cl (centres unmarked) [Compound 277, 5-((3,4-dichlorobenzyl)amino)-1-(1-(4-(dimethylamino)-2,3-dihydroxybutanoyl)piperidin-4-yl)-1H-pyrazolo[4,3-d]pyrimidin-7(6H)-one hydrochloride]
17 | 32 (≈ 65.3 µM) | 32 (≈ 65.3 µM) | 32 (≈ 65.3 µM) | 16 (≈ 32.6 µM) | 8 (≈ 16.3 µM) | 16 (≈ 32.6 µM) | > 64 | 64 µg/mL | Cc1noc(C)c1C(=O)N(C)CCn1ncc2nc(NCc3ccc(Cl)c(Cl)c3)[nH]c(=O)c21 [Compound 80, N-(2-(5-((3,4-dichlorobenzyl)amino)-7-oxo-6,7-dihydro-1H-pyrazolo[4,3-d]pyrimidin-1-yl)ethyl)-N,3,5-trimethylisoxazole-4-carboxamide]
18 | 2 | 2 | 4 | 1 | 2 | 1 | > 64 | >64 µg/mL | Cl.O=c1[nH]c(NCc2ccc(Cl)c(Cl)c2)nc2cnn(CCN3CCOCC3)c12 [Compound 57, 5-((3,4-dichlorobenzyl)amino)-1-(2-morpholinoethyl)-1H-pyrazolo[4,3-d]pyrimidin-7(6H)-one hydrochloride]
19 | 2 (≈ 5.43 µM) | 2 (≈ 5.43 µM) | 4 (≈ 10.9 µM) | 1 (≈ 2.72 µM) | 2 (≈ 5.43 µM) | 0.5 (≈ 1.36 µM) | > 64 | >64 µg/mL | O=c1[nH]c(NCc2ccc(Cl)c(Cl)c2)nc2cnn(CCCO)c12 [Compound 123, 5-((3,4-Dichlorobenzyl)amino)-1-(3-hydroxypropyl)-1H-pyrazolo[4,3-d]pyrimidin-7(6H)-one]
